# According to patent US12233070B2, “Methods for treating benzodiazepine misuse/use disorder” (University of M[…] Center, priority 2020, dated 2025):
# “Also recorded” adds a separate entry of the source. Where two headings read alike, the source gives them in different places.
# What was measured:
# rodent, squirrel monkey = details: rodent and squirrel monkey models; cited from earlier work
# Sprague-Dawley rats = assay: Pulmonary ventilation, whole body plethysmography; assay type: in vivo, rat; details: over the doses tested, i.p.; N=8 rats
# Procedure: We first assessed the effects of TPA023B, in comparison with alprazolam, using whole body plethysmography (WBP; DSI systems). For these studies, adult male Sprague-Dawley rats (n=8) were habituated to the chambers for 30 min. The chamber was then filled with 21% oxygen, sealed, and pressure fluctuation measured for 1 min. Next, the chamber was opened and the rats were injected with alprazolam or TPA023B, i.p., and placed into the sealed chamber for a 15 min pretreatment time. The chamber was again filled with 21% oxygen, and for 1 min, fluctuating pressure amounts were recorded to obtain tidal volume (lung capacity), breaths/minute, and minute volume (lung capacity per unit time).
# [1] = target: α2 subunit-containing GABAA receptors (Homo sapiens, UniProt P18507+P47869); parameters: key: act as partial positive modulators for particular subtype combinations; none: zero efficacy (i.e., antagonism) at other subtypes; details: cited from earlier work
# [2] = target: α5 subunit-containing GABAA receptors (Homo sapiens, UniProt P18507+P31644); parameters: key to Subtype α5: act as partial positive modulators for particular subtype combinations; none: zero efficacy (i.e., antagonism) at other subtypes; details: cited from earlier work
# men = details: cited from earlier work
# [3] = test system: CNS benzodiazepine binding sites; details: rodents and primates; cited from earlier work
# rhesus monkeys [4] = assay: Midazolam self-administration (PR) after TPA023B pretreatment; assay type: in vivo, rhesus monkey
# Procedure: To test this, we have trained monkeys to self-administer the short-acting conventional benzodiazepine midazolam (0.056 mg/kg/injection, i.v.) in the PR procedure, as described above. During test sessions, we initially kept the training dose of midazolam constant, and administered i.v. pretreatments of TPA023B (0.003, 0.01, 0.03, 0.1, 0.3 mg/kg, of vehicle) immediately prior to the beginning of the session. A key consideration for any pharmacotherapy, as well as interpretation of blockade of reinforcing effects generally, is the extent to which the blockade is specific to the drug target and not a generalized suppression of behavior, e.g., due to sedative-motor effects inhibiting the ability of the monkey to press the lever. Another possible confounding factor that would potentially result in blockade of drug taking is general sickness or perceptual alterations. In particular, appetite suppression would represent an undesirable side effect in a benzodiazepine addiction pharmacotherapy.
# To further evaluate the extent to which attenuation of responding was due to pharmacological antagonism and to evaluate an exemplary range of effective doses, we evaluated single doses of TPA023B administered prior to sessions in which differing doses of midazolam were tested.
# [5] = parameters: key to Pharmacokinetics: “poor” - low bioavailability and/or short half-life; “good” - potent with long half-life; details: in vivo; cited from earlier work
# [6] = test system: benzodiazepine binding sites; details: cited from earlier work
# rhesus monkeys [7] = assay: Observation/sedation, focal animal behavioral scoring; assay type: in vivo, rhesus monkey; details: i.v.
# Procedure: For the data shown here, the behavior of each monkey (n=4 total) was scored using a focal animal approach as described previously (Duke et al. 2018, J Pharmacol Exp Ther 366: 145-57). Briefly, a trained observer blind to the drug treatments observed a specific monkey for 5 min and recorded each instance that a particular behavior occurred during 15-s intervals. Scores for each behavior were calculated as the number of 15-s bins in which the behavior occurred (e.g., a maximum score would be 20). For sedation measures, structured exposure to stimuli were included in the observation sessions (Duke et al., 2018). […] Specifically, the observer presented three stimuli: 1) walked at a normal pace towards the cage, 2) spoke the animal's name, and 3) moved the lock used to secure the door of the cage. […] If the monkey attended more slowly (i.e., >3 s following stimuli), the observer scored “moderate sedation”.
# The assessment of sedation was initiated during the 5-min sampling period if the animal presented, at any time during that period, with its eyes closed for longer than 3 s. The result of this assessment was recorded for each remaining 15-sec interval of the 60-sec epoch unless eyes opened. Afterwards, eyes closing again initiated the assessment. If eyes remained closed, then the assessment was repeated at the beginning of the next 60-sec epoch 15-sec interval. Therefore, the maximum score for sedation during a 5-min period was 20 (four possible scores for 4×15-sec intervals per min, 5 min total; i.e., 4 possible scores×5 min=20). The order in which animals were observed and the observer performing the scoring each day was randomized. Four observers participated in the scoring throughout the duration of the study; each observer underwent a minimum of 20 hours of training and met an inter-observer reliability criterion of ≥90% agreement with all other observers.
# The five-min sampling periods were repeated at multiple times following i.v. injection of TPA023B or vehicle (minutes post injection): 5, 10, 20, 40, 80, 160, 320. Scores were cumulated across the time periods, resulting in a maximum possible cumulative score of 140. TPA023B was compared with alprazolam, and the results have been published by Duke et al. (2018).
# [8] = target: α3 subunit-containing GABAA receptors (Homo sapiens, UniProt P18507+P34903); parameters: key: act as partial positive modulators for particular subtype combinations; none: zero efficacy (i.e., antagonism) at other subtypes; details: cited from earlier work
# [9] = at least one dose significantly different from vehicle, out of 22 behaviors, N = 4 monkeys
# Sequence of α3 subunit-containing GABAA receptors (P34903 29-492): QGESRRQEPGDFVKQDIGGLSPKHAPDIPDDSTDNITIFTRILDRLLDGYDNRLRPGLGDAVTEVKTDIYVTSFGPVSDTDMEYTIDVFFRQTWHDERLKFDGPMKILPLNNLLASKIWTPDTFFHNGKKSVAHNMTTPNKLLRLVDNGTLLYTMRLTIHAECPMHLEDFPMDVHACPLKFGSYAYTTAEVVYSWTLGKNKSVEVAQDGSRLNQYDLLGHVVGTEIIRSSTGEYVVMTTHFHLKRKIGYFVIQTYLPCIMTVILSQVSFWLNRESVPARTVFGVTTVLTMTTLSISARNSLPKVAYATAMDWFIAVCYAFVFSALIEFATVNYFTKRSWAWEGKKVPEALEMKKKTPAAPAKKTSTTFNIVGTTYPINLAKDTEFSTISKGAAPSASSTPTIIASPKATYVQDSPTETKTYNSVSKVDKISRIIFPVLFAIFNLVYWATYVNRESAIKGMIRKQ
# Sequence of α3 subunit-containing GABAA receptors (P18507 40-475): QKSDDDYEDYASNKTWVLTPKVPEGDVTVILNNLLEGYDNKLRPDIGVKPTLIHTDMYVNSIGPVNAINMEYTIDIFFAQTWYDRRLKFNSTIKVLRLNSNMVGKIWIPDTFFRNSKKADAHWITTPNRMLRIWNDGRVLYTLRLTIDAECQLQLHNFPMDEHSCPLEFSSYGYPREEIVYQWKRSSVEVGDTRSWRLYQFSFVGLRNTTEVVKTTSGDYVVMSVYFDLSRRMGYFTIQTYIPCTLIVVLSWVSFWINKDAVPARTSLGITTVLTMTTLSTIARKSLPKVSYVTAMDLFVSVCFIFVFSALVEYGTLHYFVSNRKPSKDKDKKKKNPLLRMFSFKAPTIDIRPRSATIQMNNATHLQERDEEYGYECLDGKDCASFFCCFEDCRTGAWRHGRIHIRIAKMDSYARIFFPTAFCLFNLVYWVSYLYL
# Sequence of α3 subunit-containing GABAA receptors (P28472 26-473 partner): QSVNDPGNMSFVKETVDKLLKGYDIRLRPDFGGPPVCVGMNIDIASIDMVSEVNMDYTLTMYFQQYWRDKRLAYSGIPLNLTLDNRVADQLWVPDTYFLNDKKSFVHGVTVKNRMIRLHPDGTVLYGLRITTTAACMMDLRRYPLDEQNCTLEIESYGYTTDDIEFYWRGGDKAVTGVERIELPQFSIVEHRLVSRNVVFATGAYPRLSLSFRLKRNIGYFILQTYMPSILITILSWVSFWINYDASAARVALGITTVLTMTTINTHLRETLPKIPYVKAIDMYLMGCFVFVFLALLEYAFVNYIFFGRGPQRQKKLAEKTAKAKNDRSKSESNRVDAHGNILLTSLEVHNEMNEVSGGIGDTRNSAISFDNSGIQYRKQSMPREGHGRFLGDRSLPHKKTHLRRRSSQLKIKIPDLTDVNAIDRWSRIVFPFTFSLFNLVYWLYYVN
# Sequence of α5 subunit-containing GABAA receptors (P31644 32-462): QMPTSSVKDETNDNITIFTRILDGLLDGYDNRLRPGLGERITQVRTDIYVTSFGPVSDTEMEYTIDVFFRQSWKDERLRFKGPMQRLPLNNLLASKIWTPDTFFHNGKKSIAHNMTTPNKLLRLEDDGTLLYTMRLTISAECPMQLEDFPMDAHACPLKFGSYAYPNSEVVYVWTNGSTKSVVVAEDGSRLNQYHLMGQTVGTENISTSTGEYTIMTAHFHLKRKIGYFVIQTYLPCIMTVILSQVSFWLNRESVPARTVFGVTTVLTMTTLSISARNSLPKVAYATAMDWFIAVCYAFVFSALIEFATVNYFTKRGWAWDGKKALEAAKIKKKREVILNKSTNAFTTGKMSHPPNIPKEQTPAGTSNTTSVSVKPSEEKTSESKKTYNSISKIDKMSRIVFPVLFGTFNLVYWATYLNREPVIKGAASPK
# Sequence of α5 subunit-containing GABAA receptors (P18507 40-475): as the sequence (P18507 40-475) above
# Sequence of α5 subunit-containing GABAA receptors (P28472 26-473 partner): as the sequence (P28472 26-473 partner) above
# Sequence of α2 subunit-containing GABAA receptors (P47869 29-451): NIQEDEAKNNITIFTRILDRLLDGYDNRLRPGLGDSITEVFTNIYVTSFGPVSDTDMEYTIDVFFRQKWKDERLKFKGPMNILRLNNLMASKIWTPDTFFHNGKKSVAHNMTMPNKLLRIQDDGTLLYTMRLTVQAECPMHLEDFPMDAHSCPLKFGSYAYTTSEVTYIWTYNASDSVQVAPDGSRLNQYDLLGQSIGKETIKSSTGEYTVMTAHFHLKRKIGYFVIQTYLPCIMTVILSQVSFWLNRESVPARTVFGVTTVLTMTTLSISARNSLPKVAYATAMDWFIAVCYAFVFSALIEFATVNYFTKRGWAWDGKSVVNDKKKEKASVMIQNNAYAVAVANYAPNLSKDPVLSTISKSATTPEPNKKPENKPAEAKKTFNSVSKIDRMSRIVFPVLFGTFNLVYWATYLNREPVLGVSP
# Sequence of α2 subunit-containing GABAA receptors (P18507 40-475): as the sequence (P18507 40-475) above
# Sequence of α2 subunit-containing GABAA receptors (P28472 26-473 partner): as the sequence (P28472 26-473 partner) above
smiles,measurement,setting,value
CC(C)(O)c1cnn2c(-c3ccc(F)c(-c4c(F)cccc4C#N)c3)cnc2n1 [TPA023B],anxiolytic-like effects,"rodent, squirrel monkey",anxiolytic-like effects
same,"any ventilatory parameter (breathing frequency, tidal volume, minute volume)",Sprague-Dawley rats,did not alter; also recorded: no effects
same,Subtype α2,[1],partial
same,Subtype α5,[2],partial
same,ataxia,"men; any dose, up to 3.0 mg/70 kg",No ataxia
same,adverse effects,"men; oral, 1.5 mg/70 kg, men",no adverse effects
same,adverse effects,"men; oral, 3.0 mg/70 kg, men",fatigue and drowsiness in some subjects
same,subjects with fatigue and drowsiness,"men; oral, 3.0 mg/70 kg, men",1-4 subjects out of 8 total
same,occupancy of CNS benzodiazepine binding sites at minimally-effective doses in anxiolysis assays,[3],61-88%
same,effect on midazolam dose-response function,rhesus monkeys [4]; TPA023B 0.01 mg/kg pretreatment,shifted the midazolam dose-response function to the right
same,reduction of midazolam-maintained responding,"rhesus monkeys [4]; TPA023B 0.03 mg/kg i.v. pretreatment, midazolam 0.018 and 0.056 mg/kg/injection",> 50%
same,"midazolam self-administration, percent maximum","rhesus monkeys [4]; all midazolam doses, FIG. 8",below 50%
same,doses with both anti-conflict effects and blockade of midazolam self-administration,"rhesus monkeys [4]; conflict and self-administration data combined, FIG. 8",≥ 0.03 mg/kg
same,"midazolam self-administration, % of maximum","rhesus monkeys [4]; higher doses of TPA023B (above 0.01 mg/kg), even at higher midazolam doses",< 50%
same,"midazolam self-administration, percent maximum","rhesus monkeys [4]; highest TPA023B dose, FIG. 8",below 25%
same,effect on self-administration of midazolam,rhesus monkeys [4]; pretreatment with 0.003 mg/kg TPA023B,did not attenuate
same,Pharmacokinetics,[5],good
same,occupancy of benzodiazepine binding sites,[6]; 1.0 and 3.0 mg/kg,up to 95%
same,occupancy of benzodiazepine binding sites in brain,[6]; 3.0 and 10 mg/kg,≤ 95%
same,highest tolerated dose relative to lowest dose inducing rest/sleep posture,rhesus monkeys [7]; 1.0 mg/kg,30 fold
same,Significant behavioral effects: Decrease,rhesus monkeys [7]; [9],Tactile/Oral Exploration
same,Significant behavioral effects: Increase,rhesus monkeys [7]; [9],Rest/Sleep Posture
same,tolerability,rhesus monkeys [7]; up to doses of 1.0 mg/kg,well-tolerated
same,Subtype α3,[8],partial
